{
  "source": "patent US20070004680A1",
  "about": "“Compositions and methods for modulating gated ion channels” (PainCeptor Pharma Corporation, priority 2004, published 2007)",
  "key": {"[1]": {"target": "T1, ASIC1a (Rattus norvegicus, UniProt P55926)", "T1 construct": "expressed in transfected cells; host or cells: HEK cells according to b213", "T1 sequence (P55926 1-526)": "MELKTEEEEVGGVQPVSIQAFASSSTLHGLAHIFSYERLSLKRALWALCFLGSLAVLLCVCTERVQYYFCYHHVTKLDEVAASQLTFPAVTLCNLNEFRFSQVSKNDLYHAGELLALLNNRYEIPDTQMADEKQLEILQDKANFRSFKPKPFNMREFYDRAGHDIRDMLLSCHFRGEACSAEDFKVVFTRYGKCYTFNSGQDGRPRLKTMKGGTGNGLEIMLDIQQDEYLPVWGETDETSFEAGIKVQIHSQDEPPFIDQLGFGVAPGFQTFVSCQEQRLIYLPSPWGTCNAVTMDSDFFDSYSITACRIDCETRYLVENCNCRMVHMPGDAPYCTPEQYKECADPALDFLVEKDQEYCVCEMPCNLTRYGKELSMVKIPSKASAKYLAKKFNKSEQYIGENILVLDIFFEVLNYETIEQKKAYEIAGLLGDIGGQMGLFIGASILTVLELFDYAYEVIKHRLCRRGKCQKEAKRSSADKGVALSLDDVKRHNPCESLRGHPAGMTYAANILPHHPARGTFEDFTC", "assay": "whole cell patch clamp electrophysiology, ASIC1a", "assay_type": "cell-based", "conditions": "for Fraction of Control, ASIC1a - pH Dependency: 10 μM compound", "description": "(§1) Another example of an in vitro assessment method consists of using mammalian heterologous expression systems, which are known to the skilled in the art, and include a variety of mammalian cell lines such as COS, HEK, e.g., HEK293and/or CHO, cells. Cell lines are transfected with gated ion channel(s) and used to perform electrophysiology as follows:\n(§2) All experiments are performed at room temperature (20-25° C.) in voltage clamp using conventional whole cell patch clamp methods (Neher, E., et al. (1978) Pfluegers Arch 375:219-228).\n(§3) The amplifier used is the EPC-9 (HEKA-electronics, Lambrect, Germany) run by a Macintosh G3 computer via an ITC-16 interface. Experimental conditions are set with the Pulse-software accompanying the amplifier. Data is low pass filtered and sampled directly to hard-disk at a rate of 3 times the cut-off frequency.\n(§4) Pipettes are pulled from borosilicate glass using a horizontal electrode puller (Zeitz-lnstrumente, Augsburg, Germany). The pipette resistances are 2-3 MOhms in the salt solutions used in these experiments. The pipette electrode is a chloridized silver wire, and the reference is a silver chloride pellet electrode (In Vivo Metric, Healdsburg, USA) fixed to the experimental chamber. The electrodes are zeroed with the open pipette in the bath just prior to sealing.\n(§5) Coverslips with the cells are transferred to a 15 μl experimental chamber mounted on the stage of an inverted microscope (IMT-2, Olympus) supplied with Nomarski optics. Cells are continuously superfused with extracellular saline at a rate of 2.5 ml/min. After giga-seal formation, the whole cell configuration is attained by suction. The cells are held at a holding voltage of −60 mV and at the start of each experiment the current is continuously measured for 45 s to ensure a stable baseline. Solutions of low pH (<7) are delivered to the chamber through a custom-made gravity-driven flowpipe, the tip of which is placed approximately 50 μm from the cell. Application is triggered when the tubing connected to the flowpipe is compressed by a valve controlled by the Pulse-software. Initially, low pH (in general, pH 6.5) is applied for 1 s every 45 s. The sample interval during application is 550 μs. After stable responses are obtained, the extracellular saline as well as the low-pH solution are switched to solutions containing the compound to be tested. The compound is present until responses of a repeatable amplitude are achieved. Current amplitudes are measured at the peak of the responses, and effect of the compounds is calculated as the amplitude at compound equilibrium divided by the amplitude of the current evoked by the pulse just before the compound was included.\nThe following salt solutions are used: extracellular solution (mM): NaCl (140), KCl (4), CaCl2 (2), MgCl2 (4), HEPES (10, pH 7.4); intracellular solution (mM): KCl (120), KOH (31), MgCl2 (1.785), […] (10), HEPES (10, pH 7.2). In general, compounds for testing are dissolved in 50% DMSO at 500 fold the highest concentration used.\nThe cDNA for ASIC1a and ASIC3 can be cloned from rat poly(A)^+ mRNA and put into expression vectors according to Hesselager et al. (J Biol Chem. 279(12):11006-15 2004). All constructs are expressed in CHO-K1 cells (ATCC no. CCL61). CHO-K1 cells are cultured at 37° C. in a humidified atmosphere of 5% CO2 and 95% air and passaged twice every week. The cells are maintained in DMEM (10 mM HEPES, 2 mM glutamax) supplemented with 10% fetal bovine serum and 2 mM L-proline (Life Technologies). […]"}, "[2]": {"target": "T2, ASIC3 (Rattus norvegicus, UniProt O35240)", "T2 construct": "expressed in transfected cells", "T2 sequence (O35240 1-533)": "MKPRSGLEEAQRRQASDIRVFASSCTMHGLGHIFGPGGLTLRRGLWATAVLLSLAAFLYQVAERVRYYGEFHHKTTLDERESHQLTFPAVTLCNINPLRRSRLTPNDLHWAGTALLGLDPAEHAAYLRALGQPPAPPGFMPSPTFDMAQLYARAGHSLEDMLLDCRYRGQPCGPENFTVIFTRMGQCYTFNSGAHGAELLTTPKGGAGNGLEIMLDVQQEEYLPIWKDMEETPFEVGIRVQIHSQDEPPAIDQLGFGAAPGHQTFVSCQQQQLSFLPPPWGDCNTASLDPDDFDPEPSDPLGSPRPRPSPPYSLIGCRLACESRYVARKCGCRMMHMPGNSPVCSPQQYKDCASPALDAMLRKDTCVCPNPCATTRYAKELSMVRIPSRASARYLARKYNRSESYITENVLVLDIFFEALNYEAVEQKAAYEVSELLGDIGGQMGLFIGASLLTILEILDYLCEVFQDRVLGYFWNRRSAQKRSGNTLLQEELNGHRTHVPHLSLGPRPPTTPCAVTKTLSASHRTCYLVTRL", "assay": "whole cell patch clamp electrophysiology, ASIC3", "assay_type": "cell-based", "description": "as §1, §2, §3, §4\nas §5, with “included. […]” for “included.”"}},
  "data": [
    {"smiles": "C=CC1CN2CCC1CC2[C@@H](OC(=O)CCC1CCCC1)c1ccnc2ccccc12", "note": "(some centres unmarked) [Compound A]", "values": [
      {"measurement": "Fraction of Control, ASIC1a - pH Dependency", "setting": "[1]; pH 5.0", "value": "greater than .85"},
      {"measurement": "Fraction of Control, ASIC1a - pH Dependency", "setting": "[1]; pH 6.0", "value": "greater than .85"},
      {"measurement": "IC50", "setting": "[1]; patch clamp, HEK cells, pH 6.5", "value": "17 to 23", "unit": "µM"},
      {"measurement": "Fraction of Control, ASIC3 - pH Dependency", "setting": "[2]; 10 μM compound, pH 5.0", "value": "greater than .75"},
      {"measurement": "IC50", "setting": "[2]; patch clamp, pH 6.5", "value": "4 to 6", "unit": "µM"}
    ]}
  ]
}
